“And” between values parts separate entries of the source, which are not always exact repeats. Identical values can stand only once.

Mu-type opioid receptor, sequence (P97266 whole entry): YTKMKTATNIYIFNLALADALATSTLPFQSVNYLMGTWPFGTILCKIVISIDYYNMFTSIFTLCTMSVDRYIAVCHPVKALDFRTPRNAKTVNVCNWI

For the first assay, the target named is Kappa-type opioid receptor (Cavia porcellus, UniProt P41144).
Kappa-type opioid receptor, sequence (P41144 whole entry): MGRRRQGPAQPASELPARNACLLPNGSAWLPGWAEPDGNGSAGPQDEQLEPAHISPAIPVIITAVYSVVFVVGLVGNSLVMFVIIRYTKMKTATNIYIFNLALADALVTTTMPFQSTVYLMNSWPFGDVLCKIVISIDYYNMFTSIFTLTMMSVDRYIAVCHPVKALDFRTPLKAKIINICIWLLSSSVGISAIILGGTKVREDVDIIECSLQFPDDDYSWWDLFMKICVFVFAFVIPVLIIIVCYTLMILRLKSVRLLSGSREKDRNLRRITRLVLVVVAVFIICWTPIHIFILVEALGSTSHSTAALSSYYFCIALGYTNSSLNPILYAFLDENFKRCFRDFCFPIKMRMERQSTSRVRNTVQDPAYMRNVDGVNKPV
A word on the Ki: it is a dissociation constant, usually derived from enzyme kinetics or from competition with a known ligand. Read a high Ki as lower affinity. Compound `CN[C@@H](Cc1c(C)cc(O)cc1C)C(=O)N[C@H](CCCN=C(N)N)C(=O)N[C@@H](Cc1ccccc1)C(=O)N[C@@H](CCCCN)C(N)=O` [Tmt-D-Arg-Phe-Lys-NH2] yielded a Ki of 46.1 nM.
Turning to `Cc1cc(O)cc(C)c1C[C@H](N)C(=O)N[C@H](CCCN=C(N)N)C(=O)N[C@@H](Cc1ccccc1)C(=O)N[C@@H](CCN)C(N)=O` [H-Dmt-D-Arg-Phe-A2bu-NH2], the affinity, expressed as Ki, was 47.5 nM.
As for `NCCCC[C@H](NC(=O)[C@H](Cc1ccccc1)NC(=O)[C@@H](CCCN=C(N)N)NC(=O)[C@@H](N)Cc1ccc(O)cc1)C(N)=O` [NSC_122222], the Ki came out at 4230 nM.
On to `Cc1cc(O)cc(C)c1C[C@H](N)C(=O)N[C@H](CCCN=C(N)N)C(=O)N[C@@H](Cc1ccccc1)C(=O)N[C@@H](CCCN)C(N)=O` [Dmt-d-Arg-Phe-Orn-NH2], for which affinity was put at a Ki of 26.3 nM.

The next assay has as its target Mu-type opioid receptor (Cavia porcellus, UniProt P97266).
Take `CN[C@@H](Cc1c(C)cc(O)cc1C)C(=O)N[C@H](CCCN=C(N)N)C(=O)N[C@@H](Cc1ccccc1)C(=O)N[C@@H](CCCCN)C(N)=O` [Tmt-D-Arg-Phe-Lys-NH2]: the Ki was found to be 0.192 nM.
Turning to `Cc1cc(O)cc(C)c1C[C@H](N)C(=O)N[C@H](CCCN=C(N)N)C(=O)N[C@@H](Cc1ccccc1)C(=O)N[C@@H](CCN)C(N)=O` [H-Dmt-D-Arg-Phe-A2bu-NH2], the affinity corresponds to a Ki of 0.803 nM.
`NCCCC[C@H](NC(=O)[C@H](Cc1ccccc1)NC(=O)[C@@H](CCCN=C(N)N)NC(=O)[C@@H](N)Cc1ccc(O)cc1)C(N)=O` [NSC_122222] had a Ki of 1.69 nM.
On the same count and under the same terms, then `Cc1cc(O)cc(C)c1C[C@H](N)C(=O)N[C@H](CCCN=C(N)N)C(=O)N[C@@H](Cc1ccccc1)C(=O)N[C@@H](CCCN)C(N)=O` [Dmt-d-Arg-Phe-Orn-NH2], with 0.151 nM.

For the next assay, the target named is Delta-type opioid receptor (Mus musculus, UniProt P32300).
Delta-type opioid receptor, sequence (P32300 whole entry): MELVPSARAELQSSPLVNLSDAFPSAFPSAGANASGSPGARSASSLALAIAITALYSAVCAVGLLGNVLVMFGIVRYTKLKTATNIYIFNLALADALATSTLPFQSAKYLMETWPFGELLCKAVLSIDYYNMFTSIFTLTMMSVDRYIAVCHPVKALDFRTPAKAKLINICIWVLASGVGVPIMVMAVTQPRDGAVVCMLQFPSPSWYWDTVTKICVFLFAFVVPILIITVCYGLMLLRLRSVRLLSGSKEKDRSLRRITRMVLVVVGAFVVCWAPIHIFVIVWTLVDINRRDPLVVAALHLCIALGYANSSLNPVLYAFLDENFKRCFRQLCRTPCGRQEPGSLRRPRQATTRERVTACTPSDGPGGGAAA
`CN[C@@H](Cc1c(C)cc(O)cc1C)C(=O)N[C@H](CCCN=C(N)N)C(=O)N[C@@H](Cc1ccccc1)C(=O)N[C@@H](CCCCN)C(N)=O` [Tmt-D-Arg-Phe-Lys-NH2] had a Ki of 543 nM.
`Cc1cc(O)cc(C)c1C[C@H](N)C(=O)N[C@H](CCCN=C(N)N)C(=O)N[C@@H](Cc1ccccc1)C(=O)N[C@@H](CCN)C(N)=O` [H-Dmt-D-Arg-Phe-A2bu-NH2]: the Ki came to 6130 nM.
Still for that read-out and setting: then `Cc1cc(O)cc(C)c1C[C@H](N)C(=O)N[C@H](CCCN=C(N)N)C(=O)N[C@@H](Cc1ccccc1)C(=O)N[C@@H](CCCN)C(N)=O` [Dmt-d-Arg-Phe-Orn-NH2], with 1240 nM.
Consider `Cc1cc(O)ccc1C[C@H](N)C(=O)N[C@H](CCCN=C(N)N)C(=O)N[C@@H](Cc1ccccc1)C(=O)N[C@@H](CCCCN)C(N)=O` [H-Hmt-D-Arg-Phe-Lys-NH2 II], for which the Ki was > 10000 nM and 2320 nM.

For the origin of these results see BindingDB's records for doi:10.1016/s0223-5234(00)01171-5 (Clinical Research Institute of Montreal, 2000).
